Format in all cases: physicochemical
The nature of data set [1]: Surface tension of the aqueous solution, Du Nouy tensiometer. The note with it: for SURFACE TENSION (dynes/cm) 500 ppm: 500 ppm in water; for SURFACE TENSION (dynes/cm) 100 ppm: 100 ppm in water. As for the experimental part:
(§1) The materials of the invention were diluted in water to 0.05% (500 ppm) and/or 0.01% (100 ppm), and the surface tension of the aqueous solution was measured using a Du Nouy tensiometer. Foam height was measured as volume in a graduated cylinder. Half-life time (t ½) is the time for half the liquid present in the foam to drain from the foam. The foam was generated by a wire wisk in a Hobart mixer. Thus, 200 mL of surfactant solution to be tested is placed in a bowl of Hobart Model N-50 mixer equipped with a wire wisk stirrer and stirred for 3 minutes at medium speed (setting 2=300 rpm). The foam produced was immediately transferred to a 4000 mL graduated cylinder for measuring foam height and half-life time.

Data set [2] can be described thus: Foam height, foam generated in Hobart mixer. The note with it: 500 ppm in water; 200 mL solution stirred 3 minutes. As for the experimental part: as §1
A short description of data set [3]: Foam half-life time (drainage of half the liquid). The note with it: 500 ppm in water. As for the experimental part: as §1

Turning to `CCCCCCCCCC(O)C/[N+](C)=C/CCCS(=O)(=O)[O-]` (centres unmarked) [Example 71], the “SURFACE TENSION (dynes/cm) 500 ppm” value in data set [1] was 17.5 dynes/cm.

For C8F17C2H4O(C2H4O)nH [Example 69], the “SURFACE TENSION (dynes/cm) 500 ppm” value in data set [1] worked out at 21.7 dynes/cm.

As for `N.O=S(=O)(O)OCCC(F)(F)C(F)(F)C(F)(F)C(F)(F)C(F)(F)C(F)(F)C(F)(F)C(F)(F)F` [Example 43, C8F17CH2CH2OSO3NH4], the “FOAM HEIGHT (VOLUME)” value in data set [2] stood at 400. Further, the “SURFACE TENSION (dyne/cm) 500 ppm” value in data set [1] (500 ppm as printed (second surface tension column of Tables 12, 14)) was 22.8 dyne/cm; in data set [1] (500 ppm in water (first surface tension column of Tables 12, 14)), 19.5 dyne/cm. Besides, the “HALF-LIFE TIME (SEC) / t ½” value in data set [3] is <30 s.

As for `CCS(=O)(=O)[O-].CC[N+](C)(C)CCOC(=O)CCNCCNCCC(=O)OCCC(F)(F)C(F)(F)C(F)(F)C(F)(F)C(F)(F)C(F)(F)C(F)(F)C(F)(F)F` [Example 61, [C8F17CH2CH2OC(O)CH2CH2NHCH2CH2NHCH2CH2C(O)OCH2CH2N^+(CH3)2CH2CH3] [CH3CH2SO^−3]], in data set [1], the “SURFACE TENSION (dynes/cm) 100 ppm” value was 21.3 dynes/cm and the “SURFACE TENSION (dynes/cm) 500 ppm” value amounted to 19.9 dynes/cm. On to `O=C(CC(C(=O)OCCC(F)(F)C(F)(F)C(F)(F)C(F)(F)F)S(=O)(=O)[O-])OCCC(F)(F)C(F)(F)C(F)(F)C(F)(F)F.[Na+]` (centres unmarked) [C14, reference compound], for which, in data set [1], the “SURFACE TENSION (dynes/cm) 100 ppm” value was 30.5 dynes/cm and the “SURFACE TENSION (dynes/cm) 500 ppm” value was found to be 21.7 dynes/cm. Consider “C8F17CH2CH2S(CH2CH2O)12(CH2CH(CH3)O)3H [Example 70]”, for which, in data set [1], the “SURFACE TENSION (dynes/cm) 500 ppm” value is reported as 23.1 dynes/cm.

With `O=C(CC(C(=O)OCCC(F)(F)C(F)(F)C(F)(F)C(F)(F)F)S(=O)(=O)[O-])OCCC(F)(F)C(F)(F)C(F)(F)C(F)(F)F.[Na+]` (centres unmarked) [Example 45, C4F9CH2CH2OC(O)CH2CH(SO3Na)C(O)OCH2CH2C4F9], in data set [1], the “SURFACE TENSION (dynes/cm) 100 ppm” value is 24.2 dynes/cm and the “SURFACE TENSION (dynes/cm) 500 ppm” value was 17.7 dynes/cm. Regarding `CC(C)(CNC(=O)CCNCCNCCC(=O)OCCC(F)(F)C(F)(F)C(F)(F)C(F)(F)C(F)(F)C(F)(F)C(F)(F)C(F)(F)F)CS(=O)(=O)[O-].[K+]` [Example 55, C8F17CH2CH2OC(O)CH2CH2NHCH2CH2NHCH2CH2C(O)NHCH2C(CH3)2CH2SO3K], in data set [1], the “SURFACE TENSION (dynes/cm) 100 ppm” value is listed as 26.2 dynes/cm and the “SURFACE TENSION (dynes/cm) 500 ppm” value was 20.1 dynes/cm. For `CC(C)(CNC(=O)CCSCCC(F)(F)C(F)(F)C(F)(F)C(F)(F)C(F)(F)C(F)(F)C(F)(F)C(F)(F)F)CS(=O)(=O)[O-].[K+]` [Example 47, C8F17CH2CH2SCH2CH2C(O)NHCH2C(CH3)2CH2SO3K], in data set [1], the “SURFACE TENSION (dynes/cm) 100 ppm” value turned out to be 24.0 dynes/cm and the “SURFACE TENSION (dynes/cm) 500 ppm” value is listed as 19.0 dynes/cm.

The record behind these values is US6365769B1, “Perfluoroalkyl halides and derivatives” (3M Innovative Properties Company, priority 1991, dated 2002).
